SMILES strings stand for the structures.

The target in this test is T1, full-length STAT5b protein (Homo sapiens, UniProt P51692).
T1 construct: full-length STAT5b protein melting was assessed with (J) SIM-1, (K) SIM-2, and (L) stattic
T1 sequence (P51692 1-787): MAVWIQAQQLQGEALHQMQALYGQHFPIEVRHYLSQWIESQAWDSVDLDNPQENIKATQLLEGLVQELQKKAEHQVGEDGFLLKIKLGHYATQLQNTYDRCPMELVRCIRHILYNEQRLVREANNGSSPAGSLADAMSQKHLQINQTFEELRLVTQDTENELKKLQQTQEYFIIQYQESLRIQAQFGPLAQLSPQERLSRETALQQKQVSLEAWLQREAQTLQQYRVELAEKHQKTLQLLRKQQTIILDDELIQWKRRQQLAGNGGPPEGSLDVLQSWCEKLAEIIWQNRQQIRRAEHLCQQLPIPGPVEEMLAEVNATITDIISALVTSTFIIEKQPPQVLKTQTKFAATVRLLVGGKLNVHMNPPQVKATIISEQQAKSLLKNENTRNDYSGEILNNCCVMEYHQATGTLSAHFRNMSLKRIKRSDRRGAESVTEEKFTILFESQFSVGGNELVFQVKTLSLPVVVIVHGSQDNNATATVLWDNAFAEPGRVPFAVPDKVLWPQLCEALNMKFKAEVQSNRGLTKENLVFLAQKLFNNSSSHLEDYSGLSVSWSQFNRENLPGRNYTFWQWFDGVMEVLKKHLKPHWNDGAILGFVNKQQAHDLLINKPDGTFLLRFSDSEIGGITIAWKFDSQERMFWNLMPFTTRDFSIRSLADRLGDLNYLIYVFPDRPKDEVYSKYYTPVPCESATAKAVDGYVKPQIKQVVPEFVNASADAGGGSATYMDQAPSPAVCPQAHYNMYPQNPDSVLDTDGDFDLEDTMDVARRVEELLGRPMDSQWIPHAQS
Nature of the test: Protein thermal shift binding assay with STAT5b. The conditions noted are these: increasing doses. As for the experimental part:
FIG. 5 illustrates an embodiment of the present invention and illustrates evaluations of SIM-1 and SIM-2 as STAT3 inhibitors. (A) Protein thermal shift assay was performed to assess the melting of purified recombinant STAT3 (blue; 0.5 μg protein) (Tm=melting temperature=68.88° C.). The representative melting curves were derived after adding SIM-1 (red; 4 nM), SIM-2 (purple; 8 nM), and positive control stattic (grey; 20 nM) to the STAT3 protein. The differences of melting temperature (ΔTm) between pure protein and protein+ligands are −4.54° C., −4.16° C., and 0.39° C. for SIM-1, SIM-2, and stattic (ΔTm^cut-off>2° C.). (B) Phospho protein array analysis was conducted in cell lysates of MDA-MB-468 cells treated with DMSO control (top left), 25 ng/mL EGF (top right), EGF+10 nM SIM-1 (bottom left), and EGF+SIM-2 (bottom right) for 24 hrs. Each colored arrowhead represents a specific phosphoprotein, and the description was added in the bottom of array images. S=serine and Y=tyrosine. Relative levels of (C) Tyrosine 705 (Y705) phosphorylated STAT3, (D) Serine 727 (S727) phosphorylated STAT3, (E) Tyrosine 693 (Y693) phosphorylated STAT4, (F) Tyrosine 694 ([…]) phosphorylated STAT5A had been derived after normalizing the spot densities (n=5) with respective β-actin spots. Results are mean±SD of five different spot analyses. One-way ANOVA was adopted to test the significance of mean between groups at **p<0.01, and ****p<0.0001. Ns=no significance. Thermal shift assays of increasing doses of (G) SIM-1, (H) SIM-2, and (I) stattic with purified STAT1 protein (0.5 μg protein). The respective ΔTm values were given with the plot after matching with the color code. Similarly, full-length STAT5b protein melting was assessed with (J) SIM-1, (K) SIM-2, and (L) stattic. Results are confirmed after three different experiments.
To confirm the result, PTS assay of STAT1 with SIM-1 (FIG. 5G), SIM-2 (FIG. 5H), and stattic (FIG. 5I) was performed. […] Similar results were observed while performing the binding assay with STAT5b.

On to `O=C(O)CCC(=O)NCc1csc2ccc(Cl)cc12` [SIM-1, 4-[(5-chloro-1-benzothiophen-3-yl)methylamino]-4-oxobutanoic acid], for which the “shift in the melting curve of STAT5b” value is given as “unable to produce any significant shift”.

As for `CCOC(=O)c1c(NC(C)=O)sc2c(Cl)c(/C=N/O)ccc12` [SIM-2, ethyl 2-acetamido-7-chloro-6-(hydroxyiminomethyl)-1-benzothiophene-3-carboxylate], the “shift in the melting curve of STAT5b” value is given as “unable to produce any significant shift”.
